Bounds are passed on as bounds.

What all share (assay type): biochemical
For one test, the target named is T1, Pim-3 (Homo sapiens, UniProt Q86V86).
T1 construct: purchased Millipore 14-738
Nature of the test: Pim-3 kinase assay (Pim enzyme assays, Example A). The conditions noted are these: 1 mM ATP; read-out: Pim3 IC50. As to the method:
(§1) Pim-1 and Pim-3 kinase assays-20 μL reactions were run in white 384 well polystyrene plates dotted with 0.8 μL compound/DMSO in the assay buffer (50 mM Tris, pH 7.5, 0.01% Tween-20, 5 mM mgCl2, 0.01% BSA, 5 mM DTT), containing 0.05 μM Biotin-labeled BAD peptide substrate (AnaSpec 62269), 1 mM ATP, and […] (Pim-1, Invitrogen PV3503) or […] (Pim-3, Millipore 14-738) enzyme for 1 h at 25° C. Reactions were stopped by addition of 10 μL STOP Buffer (150 mM Tris, pH=7.5, 150 mM NaCl, 75 mM EDTA, 0.01% Tween-20, 0.3% BSA,) supplemented with Phospho-Bad (Ser 12) Antibody (Cell Signaling 9291) diluted 666-fold, and Streptavidin donor beads (PerkinElmer 6760002) along with Protein-A acceptor beads (PerkinElmer 6760137) at 15 μg/mL each. Supplementation of the STOP buffer with beads and stopping the reactions were done under reduced light. Prior to the stopping reactions STOP buffer with beads was preincubated for 1 h in the dark at room temperature. After stopping the reactions, plates were incubated for 1 h in the dark at room temperature before reading on a PHERAstar FS plate reader (BMG Labtech) under reduced light.

In a further test the target is T2, Pim2 (Homo sapiens, UniProt Q9P1W9).
T2 construct: purchased Invitrogen PV3649
T2 sequence (Q9P1W9 whole entry): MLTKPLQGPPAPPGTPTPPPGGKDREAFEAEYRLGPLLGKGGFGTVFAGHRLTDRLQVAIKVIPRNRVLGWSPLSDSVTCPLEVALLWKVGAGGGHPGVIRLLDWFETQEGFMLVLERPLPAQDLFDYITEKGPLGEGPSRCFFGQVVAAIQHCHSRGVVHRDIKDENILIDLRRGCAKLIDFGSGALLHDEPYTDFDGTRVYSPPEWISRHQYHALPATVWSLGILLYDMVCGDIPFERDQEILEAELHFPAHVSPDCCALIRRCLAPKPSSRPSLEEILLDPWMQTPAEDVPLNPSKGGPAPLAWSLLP
Put plainly: Pim-2 kinase assay (Pim enzyme assays, Example A). Conditions: 1 mM ATP; read-out: Pim2 IC50. Here is the method:
Pim-2 kinase assay—20 μL reactions were run in white 384 well polystyrene plates dotted with 0.8 μL compound/DMSO in the assay buffer (50 mM Tris, pH 7.5, 0.01% Tween-20, 5 mM mgCl2, 0.01% BSA, 5 mM DTT), containing 0.05 μM Fluorescein-labeled CREBtide peptide substrate (Invitrogen PV3508), 1 mM ATP, and 1 nM enzyme (Invitrogen PV3649) for 2 h at 25° C. Reactions were stopped by addition of 10 μL TR-FRET Dilution Buffer (Invitrogen PV3574) with 30 mM EDTA and 1.5 nM LanthaScreen Tb-CREB pSer133 antibody (Invitrogen PV3566). After 30 min. incubation at room temperature, plates were read on a PHERAstar FS plate reader (BMG Labtech).

Another test addresses T3, Pim-1 (Homo sapiens, UniProt P11309).
T3 construct: purchased Invitrogen PV3503
Nature of the test: Pim-1 kinase assay (Pim enzyme assays, Example A). The conditions noted are these: 1 mM ATP; read-out: Pim1 IC50. As to the method:
as §1

T3 sequence (P11309 whole entry): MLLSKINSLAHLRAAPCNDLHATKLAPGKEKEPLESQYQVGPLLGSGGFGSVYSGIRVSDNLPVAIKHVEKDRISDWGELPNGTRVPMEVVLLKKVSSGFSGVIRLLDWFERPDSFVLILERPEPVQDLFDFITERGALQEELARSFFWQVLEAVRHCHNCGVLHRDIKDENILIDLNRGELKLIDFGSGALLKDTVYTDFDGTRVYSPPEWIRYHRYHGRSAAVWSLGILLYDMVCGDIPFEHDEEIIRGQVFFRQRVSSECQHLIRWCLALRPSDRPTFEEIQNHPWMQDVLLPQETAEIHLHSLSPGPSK

Turning to `CCc1ccc2cc(N)c(C(=O)Nc3cnc4c(c3N3CCC[C@H](N)C3)CCC4O)nc2c1` (single isomer, unassigned) [22 isomer 2], the figures for the IC50 on Pim-3, on Pim2 and at Pim-1 were not above 100 nM, more than 2000 nM and not above 100 nM, respectively.
In the case of `Nc1cc2ccc(C3CCNCC3)cc2nc1C(=O)Nc1cnccc1N1CCC[C@H](N)C1` [Example 1, 3-Amino-N-{4-[(3S)-3-aminopiperidin-1-yl]pyridin-3-yl}-7-piperidin-4-ylquinoline-2-carboxamide], the IC50 is not above 100 nM on Pim-3, 100 to 1000 nM on Pim2 and not above 100 nM on Pim-1.
On to `Nc1cc2ccc(C3CCOCC3)cc2nc1C(=O)Nc1cnccc1N1CCC[C@H](N)C1` [Example 2, 3-Amino-N-{4-[(3S)-3-aminopiperidin-1-yl]pyridin-3-yl}-7-(tetrahydro-2H-pyran-4-yl)quinoline-2-carboxamide], for which the IC50 on Pim-3 is not above 100 nM; at Pim2, 100 to 1000 nM; on Pim-1, not above 100 nM.
Turning to `Nc1cc2ccc(-c3c(F)cccc3F)cc2nc1C(=O)Nc1cnccc1N1CCC[C@H](N)C1` [Example 3, 3-Amino-N-{4-[(3S)-3-aminopiperidin-1-yl]pyridin-3-yl}-7-(2,6-difluorophenyl)quinoline-2-carboxamide], the values for the 50% inhibitory concentration (IC50) at Pim-3, on Pim2 and on Pim-1 were not above 100 nM, 100 to 1000 nM and not above 100 nM, respectively.
With `Cn1nccc1-c1ccc2cc(N)c(C(=O)Nc3cnccc3N3CCC[C@H](N)C3)nc2c1` [Example 4, 3-Amino-N-{4-[(3S)-3-aminopiperidin-1-yl]pyridin-3-yl}-7-(1-methyl-1H-pyrazol-5-yl)quinoline-2-carboxamide], the IC50 on Pim-3 was not above 100 nM; on Pim2 it was 1000 to 10000 nM; on Pim-1, not above 100 nM.
Consider `N#Cc1ccccc1-c1ccc2cc(N)c(C(=O)Nc3cnccc3N3CCC[C@H](N)C3)nc2c1` [Example 5, 3-Amino-N-{4-[(3S)-3-aminopiperidin-1-yl]pyridin-3-yl}-7-(2-cyanophenyl)quinoline-2-carboxamide], for which the IC50 at Pim-3, at Pim2 and on Pim-1 was not above 100 nM in each case.
On to `N#Cc1cccc(F)c1-c1ccc2cc(N)c(C(=O)Nc3cnccc3N3CCC[C@H](N)C3)nc2c1` [Example 7, 3-Amino-N-{4-[(3S)-3-aminopiperidin-1-yl]pyridin-3-yl}-7-(2-cyano-6-fluorophenyl)quinoline-2-carboxamide], for which the IC50 on Pim-3, at Pim2 and on Pim-1 was not above 100 nM throughout.
Take `NC(=O)c1cccc(F)c1-c1ccc2cc(N)c(C(=O)Nc3cnccc3N3CCC[C@H](N)C3)nc2c1` [Example 8, 3-Amino-7-[2-(aminocarbonyl)-6-fluorophenyl]-N-{4-[(3S)-3-aminopiperidin-1-yl]pyridin-3-yl}quinoline-2-carboxamide]: the IC50 on Pim-3 was not above 100 nM; on Pim2, more than 2000 nM; on Pim-1, more than 40 nM.
Turning to `CCOc1ccc2cc(N)c(C(=O)Nc3cnccc3N3CCC[C@H](N)C3)nc2n1` [Example 25, 3-Amino-N-{4-[(3S)-3-aminopiperidin-1-yl]pyridin-3-yl}-7-ethoxy-1,8-naphthyridine-2-carboxamide], the IC50 at Pim-3 and at Pim-1 was not above 100 nM in each case.
For the compound `CCOc1ccc2cc(N)c(C(=O)Nc3cnccc3N3C[C@@H](N)[C@H](O)[C@@H](C)C3)nc2n1` [Example 26, 3-Amino-N-{4-[(3R,4R,5S)-3-amino-4-hydroxy-5-methylpiperidin-1-yl]pyridin-3-yl}-7-ethoxy-1,8-naphthyridine-2-carboxamide], the IC50 at Pim-3 and at Pim-1 was not above 100 nM each time.
Regarding `CCc1cc2nc(C(=O)Nc3cnccc3N3CCC[C@H](N)C3)c(N)cc2cn1` [Example 27, 3-Amino-N-{4-[(3S)-3-aminopiperidin-1-yl]pyridin-3-yl}-7-ethyl-1,6-naphthyridine-2-carboxamide], the IC50 on Pim-3 and at Pim-1 was not above 100 nM in each case.

Values taken from patent US9278950B2, “Bicyclic aromatic carboxamide compounds useful as Pim kinase inhibitors” (Incyte Corporation, priority 2013, dated 2016).
